In general, IC50 refers to the concentration at which inhibition is half-maximal.

Like-named read-outs stand apart in the source and are kept apart here.

In one assay the test system is MMP-2. Also on record: method as in PMID 17088065, PMID 16451058, PMID 19204958. As to conditions: Table 2; existing data ref 16, 17, 24; cited from earlier work.
Another assay has as its target Human CA I (Homo sapiens, UniProt P00915). In words: CA catalyzed CO2 hydration stopped-flow assay, CA I.
The target of another assay is Human CA II (Homo sapiens, UniProt P00918). Nature of the assay: CA catalyzed CO2 hydration stopped-flow assay, CA II. As to conditions: for decrease in activity on CA II compared to the standard AAZ: versus AAZ.
The target in another assay is Human CA IX (Homo sapiens, UniProt Q16790). In words: CA catalyzed CO2 hydration stopped-flow assay, CA IX.
The next assay concerns the target Human CA XII (Homo sapiens, UniProt O43570). In words: CA catalyzed CO2 hydration stopped-flow assay, CA XII.
The target in the next assay is Human CA XIV (Homo sapiens, UniProt Q9ULX7). In words: CA catalyzed CO2 hydration stopped-flow assay, CA XIV.
Human CA XIV, sequence (Q9ULX7 16-337): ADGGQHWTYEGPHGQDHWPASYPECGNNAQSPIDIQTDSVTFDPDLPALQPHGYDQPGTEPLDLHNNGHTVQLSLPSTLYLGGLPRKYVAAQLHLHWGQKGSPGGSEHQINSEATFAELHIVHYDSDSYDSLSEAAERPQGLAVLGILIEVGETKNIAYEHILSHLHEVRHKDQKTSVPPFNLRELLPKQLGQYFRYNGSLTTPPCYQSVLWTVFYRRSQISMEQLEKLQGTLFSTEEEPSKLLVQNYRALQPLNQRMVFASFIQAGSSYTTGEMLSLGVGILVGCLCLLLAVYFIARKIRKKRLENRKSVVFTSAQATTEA
The test system of another assay is MMP-8. On the set-up: method as in PMID 17088065, PMID 16451058, PMID 19204958. As to conditions: Table 2; existing data ref 16, 17, 24; cited from earlier work.
The mark [1] stands for this setting: read-out: IC50 CA I, Table 2, recombinant human CA I, stopped-flow CO2 hydration.
Where [2] appears, read: IC50 CA II, Table 1, human CA II, stopped-flow CO2 hydration, 15 min preincubation.
[3] abbreviates: read-out: IC50 CA I, Table 1, recombinant human CA I, stopped-flow CO2 hydration, 15 min preincubation.
[4] abbreviates: read-out: IC50 CA II, Table 1, human CA II, stopped-flow CO2 hydration, 15 min preincubation.
The mark [5] stands for this setting: read-out: IC50 CA II, Table 2, recombinant human CA II, stopped-flow CO2 hydration.
The mark [6] stands for this setting: read-out: IC50 CA IX, Table 2, recombinant human CA IX, stopped-flow CO2 hydration.
The mark [7] stands for this setting: read-out: IC50 CA XII, Table 2, recombinant human CA XII, stopped-flow CO2 hydration.
The mark [8] stands for this setting: read-out: IC50 CA XIV, Table 2, recombinant human CA XIV, stopped-flow CO2 hydration.

Human CA I, sequence (P00915 whole entry): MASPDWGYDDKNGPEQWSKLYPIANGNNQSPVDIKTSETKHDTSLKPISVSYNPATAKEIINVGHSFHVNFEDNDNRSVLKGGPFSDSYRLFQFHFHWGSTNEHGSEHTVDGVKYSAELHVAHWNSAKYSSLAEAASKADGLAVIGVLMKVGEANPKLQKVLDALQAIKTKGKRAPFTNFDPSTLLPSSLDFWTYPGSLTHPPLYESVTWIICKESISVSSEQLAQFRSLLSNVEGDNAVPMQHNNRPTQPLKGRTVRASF
Human CA XII, sequence (O43570 25-354): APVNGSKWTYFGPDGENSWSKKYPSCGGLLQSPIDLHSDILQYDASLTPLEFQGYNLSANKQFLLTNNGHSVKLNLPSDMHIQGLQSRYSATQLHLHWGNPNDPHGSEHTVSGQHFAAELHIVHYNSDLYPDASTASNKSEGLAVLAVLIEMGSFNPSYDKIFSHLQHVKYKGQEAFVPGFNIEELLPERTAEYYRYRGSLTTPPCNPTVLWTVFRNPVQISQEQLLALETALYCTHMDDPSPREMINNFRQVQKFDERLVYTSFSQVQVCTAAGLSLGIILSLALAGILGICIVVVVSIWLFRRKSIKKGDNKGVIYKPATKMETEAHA
Procedure for Human CA II: (§1) An applied photophysics stopped-flow instrument has been used for assaying the CA catalyzed CO2 hydration activity. […] The CO2 concentrations ranged from 1.7 to 17 mM for the determination of the kinetic parameters and inhibition constants. […] The uncatalyzed rates were determined in the same manner and subtracted from the total observed rates. Stock solutions of inhibitor (10–50 mM) were prepared in distilled-deionized water and dilutions up to 0.1 nM were done thereafter with the assay buffer.
Procedure for Human CA IX: as §1
Procedure for Human CA XII: as §1
Procedure for Human CA XIV: as §1

As for `COc1ccc(-c2ccc(S(=O)(=O)C(Cc3ccccc3)P(=O)(O)O)cc2)cc1` (stereo not drawn) [Compound 10, 1–(4′-methoxybiphenyl-4-sulfonyl)-2-phenylethylphosphonic acid], the IC50 in the assay with MMP-2 was 8.2 µM; on Human CA I, > 10 µM; on Human CA I (setting [1]), > 10 µM; on Human CA II (setting [2]), > 10 µM; on Human CA II (IC50 CA II, Table 2, recombinant human CA II, stopped-flow CO2 hydration), 21.1 µM; against Human CA IX it was 0.837 µM. Also, the IC50 at Human CA XII stood at 8.48 µM; against Human CA XIV it was 7.47 µM.
For the compound `Cc1cccc(-c2ccc(S(=O)(=O)N[C@@H](C(C)C)P(=O)(O)O)cc2)c1` [(R)-13, (R)-1-[3′-methyl-biphenyl-4-sulfonylamino]-2-methylpropyl phosphonic acid], the IC50 on Human CA I and at Human CA II (setting [2]) was > 10 µM throughout.
Take `O=P(O)(O)CS(=O)(=O)c1ccc(-c2ccccc2)cc1` [Compound 1]: the IC50 on Human CA I (setting [3]) and at Human CA II (setting [4]) was > 10 µM throughout.
With `COc1ccc(-c2ccc(S(=O)(=O)N[C@@H](C(C)C)P(=O)(O)O)cc2)cc1` [(R)-15, (R)-N-(4′-methoxybiphenylsulfonyl)-phosphovaline], the half-maximal inhibitory concentration (IC50) is 0.0015 µM in the assay with MMP-2; 0.0014 µM in the assay with MMP-8; > 10 µM at Human CA I (setting [3]); > 10 µM at Human CA I (setting [1]); 3.78 µM at Human CA II (setting [4]); 3.78 µM at Human CA II (setting [5]). Further, the values for the IC50 on Human CA IX (setting [6]), on Human CA XII (setting [7]) and on Human CA XIV (setting [8]) were 0.084 µM, 6.22 µM and 1.52 µM, respectively. Moreover, the “decrease in activity on CA II compared to the standard AAZ” value (“decrease in activity on CA II” for short) at Human CA II is listed as ~100 fold.
As to `COc1ccc(-c2ccc(S(=O)(=O)CP(=O)(O)O)cc2)cc1` [Compound 4], the IC50 on Human CA I (setting [3]) and on Human CA II (setting [4]) was > 10 µM each time.
Turning to `O=C(CS(=O)(=O)c1ccc(-c2ccccc2)cc1)NO` [Compound 3], the IC50 was 0.006 µM in the assay on MMP-2; 0.024 µM in the assay on MMP-8; 8.3 µM at Human CA I (read-out: IC50 CA I, rounded value); 8.3 µM on Human CA I (setting [3]); 8.3 µM on Human CA I (setting [1]); 3.66 µM on Human CA II (setting [4]). The IC50 at Human CA II (setting [5]) turned out to be 3.66 µM; at Human CA IX (read-out: IC50 CA IX, rounded value), 0.5 µM; at Human CA IX (setting [6]), 0.527 µM; at Human CA XII (setting [7]), 8.86 µM; at Human CA XIV (setting [8]) it was 8.53 µM. Besides, the “decrease in activity on CA II” value on Human CA II is ~100 fold.
With `O=C(O)CS(=O)(=O)c1ccc(-c2ccccc2)cc1` [Compound 2], the “inhibitory activity on CA I (in words)” value at Human CA I is recorded as “completely devoid of activity”. The IC50 at Human CA I (setting [3]) and on Human CA II (setting [4]) was > 10 µM each time. In addition, the “inhibitory activity on CA II (in words)” value against Human CA II was “completely devoid of activity”.
Turning to `COc1ccc(Oc2ccc(S(=O)(=O)CP(=O)(O)O)cc2)cc1` [Compound 8], the IC50 on Human CA I (setting [3]) and on Human CA II (setting [4]) was > 10 µM each time.
Turning to `CC(C)CC(P(=O)(O)O)S(=O)(=O)c1ccc(-c2ccccc2)cc1` (racemic) [Compound 9], the IC50 at Human CA I (setting [3]) and on Human CA II (setting [4]) was > 10 µM throughout.
Turning to `O=P(O)(O)CS(=O)(=O)c1ccc(-c2cccc(Cl)c2)cc1` [Compound 6], the IC50 at Human CA I (setting [3]) and at Human CA II (setting [4]) was > 10 µM each time.
Consider `O=P(O)(O)CS(=O)(=O)c1ccc(-c2ccc(C(F)(F)F)cc2)cc1` [Compound 5], for which the IC50 on Human CA I (setting [3]) and at Human CA II (setting [4]) was > 10 µM each time.
As to `Cc1ccc(-c2ccc(S(=O)(=O)N[C@@H](C(C)C)P(=O)(O)O)cc2)cc1` [(R)-12, (R)-N-(4′-methylbiphenylsulfonyl)-phosphovaline], the IC50 with MMP-2 was 0.0023 µM; in the assay with MMP-8, 0.0004 µM; at Human CA I (setting [3]) it was > 10 µM; at Human CA I (setting [1]), > 10 µM; on Human CA II (setting [4]), 4.14 µM; on Human CA II (read-out: IC50 CA II, Table 2, CA II from Sigma) it was 4.14 µM. In addition, the IC50 on Human CA IX (setting [6]) worked out at 0.093 µM; at Human CA XII (read-out: IC50 CA XII, rounded value) it was 0.47 µM; at Human CA XII (setting [7]), 0.475 µM; at Human CA XIV (read-out: IC50 CA XIV, rounded value), 0.37 µM; at Human CA XIV (setting [8]), 0.369 µM. For the same compound, the “decrease in activity on CA II” value on Human CA II is listed as ~100 fold. Moreover, on Human CA XII (CA XII versus CA IX), the “decrease in potency on CA XII in comparison to CA IX” value is on record as 4 fold. The “decrease in potency on CA XIV in comparison to CA IX” value at Human CA XIV (CA XIV versus CA IX) worked out at 4 fold.
For `CC(C)(P(=O)(O)O)S(=O)(=O)c1ccc(-c2ccccc2)cc1` [Compound 11], the IC50 on Human CA I (setting [3]) and at Human CA II (setting [4]) was > 10 µM in each case.
With `O=P(O)(O)CS(=O)(=O)c1ccc(-c2cccs2)cc1` [Compound 7], the IC50 on Human CA I (setting [3]) and on Human CA II (setting [4]) was > 10 µM throughout.

The values above are taken from PMC6009896, “Dual targeting of cancer-related human matrix metalloproteinases and carbonic anhydrases by chiral N-(biarylsulfonyl)-phosphonic acids” (Journal of Enzyme Inhibition and Medicinal Chemistry, 2017).
